The values below are quoted from earlier work in patent US20070259967A1, “Methods of Diagnosis” (priority 2004, published 2007).

The conditions of data set [1]: amphetamine administered to children with ADHD; Zametkin et al. 1984.
Data set [2] addresses T1, Platelet MAO-B (Homo sapiens, UniProt P27338).
T1 construct: the platelet pellet was resuspended with saline to obtain a concentration of 107 platelets/ml and then sonicated for 10 seconds; from tissue; host or cells: blood platelets (platelet rich plasma from fasting venous blood)
T1 sequence (P27338 1-520): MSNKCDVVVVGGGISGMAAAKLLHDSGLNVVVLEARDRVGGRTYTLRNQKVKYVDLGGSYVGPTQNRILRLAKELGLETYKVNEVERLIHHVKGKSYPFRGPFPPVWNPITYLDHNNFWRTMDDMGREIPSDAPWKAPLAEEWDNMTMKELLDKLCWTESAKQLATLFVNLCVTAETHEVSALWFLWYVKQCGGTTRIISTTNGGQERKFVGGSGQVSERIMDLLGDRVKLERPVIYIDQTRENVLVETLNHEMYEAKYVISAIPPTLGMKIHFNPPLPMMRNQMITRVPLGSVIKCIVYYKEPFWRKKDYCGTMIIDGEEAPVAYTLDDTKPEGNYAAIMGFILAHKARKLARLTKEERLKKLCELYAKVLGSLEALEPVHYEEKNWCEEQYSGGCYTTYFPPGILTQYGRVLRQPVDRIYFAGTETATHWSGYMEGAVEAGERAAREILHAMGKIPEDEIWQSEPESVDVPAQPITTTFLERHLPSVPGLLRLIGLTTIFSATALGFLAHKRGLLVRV
As to conditions: 0.24 mM pargyline added as blank; 20 μM PEA, 37° C., 30 minutes; method from Zhou et al.

For data set [3] the following is noted: majority of the cited clinical studies of selegiline in ADHD.

With `CC(N)Cc1ccccc1` (stereo not drawn) [amphetamine], the “increase in the excretion of urinary phenylethylamine (PEA)” value in data set [1] is 1600%.
On to `C#CCN(C)Cc1ccccc1` [pargyline], for which the “production of PAA (phenylacetic acid)” value in data set [2] was “no production of PAA”.
For `C#CCN(C)[C@H](C)Cc1ccccc1.Cl` [selegiline], the “benefit to ADHD patients compared with psycho-stimulant treatment” value in data set [3] is “less benefit to the patients than psycho-stimulant treatment”.
